Key:
cotton pellet granuloma = experiment: Anti-granuloma activity (cotton pellet); type: in vivo, rat; details: Rattus norvegicus, po, 192 h, 7 days, read-out: I.R. against cotton pellet edema
Method in brief: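 Rats (6/group) implanted dorsally with two 30±1 mg cotton pellets; compounds given orally in distilled water at 1000 mg/kg/day once daily for 7 days. Granuloma excised on day 8 and dry weight measured; value is % inhibition of granuloma proliferation.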

level of blood sugar = experiment: Anti-hyperglycemia activity (reduction of blood sugar level); type: in vivo, rat (Wistar, streptozotocin); details: oral, 300 mg/kg
Method in brief: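 Streptozotocin-diabetic Wistar rats (60 mg/kg i.p., relapsed hyperglycemia after insulin) given compounds orally at 300 mg/kg in distilled water. Blood sugar measured in samples taken 3 and 6 h post-dose.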

Sarcoma-180 = experiment: Anti-tumour activity against Sarcoma-180; type: in vivo, mouse (ICR-JCL); details: Mus musculus, Sarcoma-180, po, 600 h, 10 times every other day, tumour weight on 25th day, read-out: Antitumour activity, inhibiting rate (I.R.)
Method in brief: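 ICR-JCL mice were given 1×10^6 Sarcoma-180 cells axillary; from 24 hours, compounds in saline were dosed orally at 500 mg/kg/time, 10 times every other day. Tumour nodes were weighed on day 25; inhibition rate = (1-T/C)×100(%) versus untreated tumour-bearing mice.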

in vivo = details: mouse, in vivo, po, mice, 7 days observation, read-out: LD50, acute oral toxicity
carrageenin edema = experiment: Anti-Carrageenin edema activity; type: in vivo, rat; details: Rattus norvegicus, po, 1000 mg/kg once, read-out: I.R. against carrageenin edema
Method in brief: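 Rats (10 per group) given compound orally once at 1000 mg/kg in distilled water, then 0.1 ml 1% carrageenin injected into right hind foot pad. Foot pad thickness measured at intervals; inhibition rate (%) = (1−T/C)×100 versus carrageenin-only animals.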

blood pressure = experiment: Anti-hypertension activity (reduction of blood pressure); type: in vivo, rat (spontaneous hypertension); details: oral, 300 mg/kg
Method in brief: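 Spontaneously hypertensive rats dosed orally at 300 mg/kg in distilled water. Blood pressure measured at 3 and 6 h. Activity taken as change from the value just before dosing.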

[1] = test system: pseudo-escaping reaction to tail pressure; experiment: Analgetic activity against mechanical stimulation of pressure; type: in vivo, mouse (ICR female); details: oral, 1000 mg/kg
total cholesterol = experiment: Anti-hyperlipemia activity, total cholesterol in blood; type: in vivo, rabbit (Japanese white male); details: oral, 300 mg/kg once; for Reduction of cholesterol level after 3 hrs.: negative = raising
Method in brief: (§1)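 Male Japanese white rabbits fed 1% cholesterol diet for 3 months received compound once orally at 300 mg/kg in water. Ear-vein blood: cholesterol by enzymatic method, beta-lipoprotein by colorimetry; values are change from predose at 3 or 6 h.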

beta-lipoprotein = experiment: Anti-hyperlipemia activity, beta-lipoprotein in blood; type: in vivo, rabbit (Japanese white male); details: oral, 300 mg/kg once
Method in brief: as §1

exudation = experiment: Anti-exudation activity (air pouch, croton oil); type: in vivo, rat; details: Rattus norvegicus, po, 144 h, 5 days, read-out: I.R. against exudation
Method in brief: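 Rats, 6 per group, given subcutaneous dorsal air pouch injected with 0.5 ml sesame oil containing 1% croton oil. Compounds dosed orally in distilled water at 1000 mg/kg/day for five days; pouch exudate volume measured on day 6 and expressed as percent inhibition of exudation.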

acetic acid writhing = experiment: Analgetic activity against chemical stimulation of acetic acid (writhing); type: in vivo, mouse (ICR female); details: Mus musculus, po, 30 min before 0.6% acetic acid, read-out: I.R. of writhing
Text: Rate of inhibition (I.R.) (%)=(1-T/C)×100
T represents the average number of writhing of the group of mice administered with the present compound and injected with acetic acid, and C represents the average number of writhing of the group of mice only injected with acetic acid (control).

[2] = test system: pyrexia (Saccharomyces cerevisiae); experiment: Anti-pyrexia activity (yeast-induced); type: in vivo; details: Rattus norvegicus, oral, read-out: Rate of inhibiting pyrexia (I.R.)
Method in brief: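 Rats (n=6/group) received subcutaneous 20% Saccharomyces cerevisiae suspension, fasted 10 h, then dosed orally with 1000 mg/kg compound in distilled water. Rectal temperature was tracked at set intervals and the lowest value taken; inhibition rate computed against non-yeast and yeast-only control temperatures.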

SMILES	inhibition in vivo at 1000 mg/kg/day (cotton pellet granuloma)	Reduced level of blood sugar after 3 hrs. (level of blood sugar)	Reduced level of blood sugar after 6 hrs. (level of blood sugar)	inhibition in vivo at 500 mg/kg (Sarcoma-180)	LD50 at 168 h (in vivo)	inhibition in vivo at 1000 mg/kg (carrageenin edema)	Reduced level of blood pressure after 3 hrs. (blood pressure)	Reduced level of blood pressure after 6 hrs. (blood pressure)	Pseudo-escapting reaction pressure [1]	Pseudo-escapting reaction time [1]	Reduction of cholesterol level after 3 hrs. (total cholesterol)	Reduction of cholesterol level after 6 hrs. (total cholesterol)	Reduction of beta-lipoprotein level after 3 hrs. (beta-lipoprotein)	Reduction of beta-lipoprotein level after 6 hrs. (beta-lipoprotein)	inhibition in vivo at 1000 mg/kg/day (exudation)	inhibition in vivo at 1000 mg/kg (acetic acid writhing)	inhibition in vivo at 1000 mg/kg [2]
O=C(OCc1ccccc1)c1ccc(NC2(CO)OC[C@@H](O)[C@@H](O)[C@@H]2O)cc1 (stereo partly drawn) [Compound 15, benzyl p-aminobenzoate-N-D-fructoside]	9%	72 mg/dL	85 mg/dL	43%	11000 mg/kg	30.8%	18 mm Hg	20 mm Hg	78 mmHg	37 s	-1 mg/dL	45 mg/dL	150 mg/dL	154 mg/dL	7.5%	19%	26%
O=C(OC1CCCCC1)c1ccccc1NC1C[C@H](O)[C@H](O)CO1 (stereo partly drawn) [Compound 16, cyclohexyl o-aminobenzoate-N-D-deoxyriboside]	6.5%	125 mg/dL	140 mg/dL	37%	8800 mg/kg	18.6%	20 mm Hg	20 mm Hg	87 mmHg	39 s	0 mg/dL	33 mg/dL	104 mg/dL	110 mg/dL	5.7%	26%	48%
O=C(OC1CCCCC1)c1cccc(NC2O[C@H](CO)[C@@H](O)[C@H](O)[C@@H]2O)c1 (stereo partly drawn) [Compound 17, cyclohexyl m-aminobenzoate-N-D-mannoside]	19.7%	140 mg/dL	145 mg/dL	49%	> 15000 mg/kg	4.3%	23 mm Hg	28 mm Hg	92 mmHg	42 s	-2 mg/dL	40 mg/dL	124 mg/dL	136 mg/dL	14.6%	47%	30%
O=C(OC1CCCCC1)c1ccc(NC2OC[C@@H](O)[C@H](O)[C@H]2O)cc1 (stereo partly drawn) [Compound 18, cyclohexyl p-aminobenzoate-N-D-xyloside]	12.2%	121 mg/dL	165 mg/dL	62%	> 15000 mg/kg	19.7%	22 mm Hg	25 mm Hg	94 mmHg	39 s	2 mg/dL	62 mg/dL	148 mg/dL	154 mg/dL	25%	33%	62%
O=C(OC1CCCCC1)c1ccc(NC2O[C@H](CO)[C@@H](O[C@@H]3O[C@H](CO)[C@@H](O)[C@H](O)[C@H]3O)[C@H](O)[C@H]2O)cc1 (stereo partly drawn) [Compound 19, cyclohexyl p-aminobenzoate-N-cellobioside]	5.5%	101 mg/dL	113 mg/dL	51%	14600 mg/kg	5.5%	20 mm Hg	21 mm Hg	82 mmHg	37 s	3 mg/dL	41 mg/dL	135 mg/dL	148 mg/dL	24.6%	24%	37%
O=C(OC1CCCCC1)c1ccc(NC2O[C@H](CO)[C@@H](O[C@H]3O[C@H](CO)[C@@H](O[C@H]4O[C@H](CO)[C@@H](O)[C@H](O)[C@H]4O)[C@H](O)[C@H]3O)[C@H](O)[C@H]2O)cc1 (stereo partly drawn) [Compound 20, cyclohexyl p-aminobenzoate-N-maltotrioside]	21.7%	113 mg/dL	120 mg/dL	37%	12500 mg/kg	8.6%	22 mm Hg	24 mm Hg	75 mmHg	35 s	-2 mg/dL	50 mg/dL	125 mg/dL	128 mg/dL	6.2%	17%	23%
